Test results as given in the CombiSolv-Exp solvation set (Vermeire and Green 2021).

Experiment: solvent given as SMILES

C1CCCC1
Conditions	solvation free energy, 298 K [kcal/mol]
in CC#N	-2.52
in CC(C)CCCC(C)CCCC(C)CCCCC(C)CCCC(C)CCCC(C)C	-3.23
in CC(C)O	-2.89
in CCCC#N	-2.86
in CCCCCC	-3.7
in CCCCCCCCCC	-3.46
in CCCCCCCCCCCC	-3.37
in CCCCCCCCCCCCCCCC	-3.31
in CCCCCCCO	-3.1
in CCCO	-2.89
in CCO	-2.78
in CN1CCCC1=O	-2.7
in CN1CCCCC1=O	-2.81
in CN1CCN(C)C1=O	-2.56
in CN(C)C=O	-2.73
in CO	-2.62
in COC(C)(C)C	-3.55
in ClC(Cl)(Cl)Cl	-3.78
in ClC=CCl	-3.78
in N#CCCCCC#N	-2.08
in N#Cc1ccccc1	-3
in NCCO	-1.24
in O	1.2
in O=CN1CCOCC1	-2.22
in O=Cc1ccco1	-2.41
in OC1CCCCC1	-3.02
in OCc1ccccc1	-2.7
in OCc1ccco1	-2.39
in S=C=S	-3.84
in c1ccc2ncccc2c1	-3.21

CC(C)CCCCCOC(=O)c1ccccc1C(=O)OCCCCCC(C)C
Conditions	solvation free energy, 298 K [kcal/mol]
in O	-6.43

CCNc1nc(NC(C)C(C)C)nc(SC)n1 (stereo unspecified)
Conditions	solvation free energy, 298 K [kcal/mol]
in O	-8.73

CCCCCC#N
Conditions	solvation free energy, 298 K [kcal/mol]
in CCCCCCCCCCCCCCCC	-4.68
in CCCCCCCCO	-5.54
in O	-3.28
in [2H]O[2H]	-3.25

Oc1ccc(O)cc1
Conditions	solvation free energy, 298 K [kcal/mol]
in CCCCCC	-6.25
in CCCCCCCC	-6.58
in CCCCOC(C)=O	-12.2
in CCOC(C)=O	-12.3
in Cc1ccc(C)cc1	-8.81
in Cc1cccc(C)c1	-8.88
in Cc1ccccc1C	-8.88
in O	-12.1

CC1=CC2C(=C(C)CCC2C(C)C)CC1 (stereo unspecified)
Conditions	solvation free energy, 298 K [kcal/mol]
in O	-0.4

COc1cc(C2c3cc4c(cc3C(O)C3COC(=O)C23)OCO4)cc(OC)c1OC (stereo unspecified)
Conditions	solvation free energy, 298 K [kcal/mol]
in CC(C)O	-25.1
in CCO	-25.3

CCCCCCCCCCCCCC(=O)OCC
Conditions	solvation free energy, 298 K [kcal/mol]
in O	-7.32

CCCCCCCCCCCCc1ccccc1
Conditions	solvation free energy, 298 K [kcal/mol]
in CCC(C)=O	-11.5
in CCCCCCC	-11.8
in CCO	-10
in O=Cc1ccco1	-10.4
in OCCOCCO	-7.69

CCCCOCC(C)O (stereo unspecified)
Conditions	solvation free energy, 298 K [kcal/mol]
in O	-5.73

C=C1C2CCC(C2)C1(C)C (stereo unspecified)
Conditions	solvation free energy, 298 K [kcal/mol]
in O	0.61

C=C
Conditions	solvation free energy, 298 K [kcal/mol]
in Brc1ccccc1	-0.52
in C1CCC2CCCCC2C1	-0.46
in C1CCOC1	-0.82
in C1COCCO1	-0.58
in CC1CO1	-0.89
in CC1COC(=O)O1	-0.17
in CC#N	-0.62
in CC(=O)N(C)C	-0.45
in CC(C)(C)O	-0.49
in CC(C)=O	-0.76
in CC(C)CO	-0.46
in CC(C)O	-0.45
in CCC(C)O	-0.44
in CCCCC	-0.69
in CCCCCC	-0.64
in CCCCCCC	-0.62
in CCCCCCCC	-0.6
in CCCCCCCCC	-0.6
in CCCCCCCCCC	-0.57
in CCCCCCCCCCCCCCCC	-0.39
in CCCCCCCCO	-0.37
in CCCCCCCO	-0.43
in CCCCCCO	-0.43
in CCCCCO	-0.48
in CCCCO	-0.46
in CCCO	-0.52
in CCO	-0.56
in CCOCC	-0.97
in CN1CCCC1	-0.32
in CN1CCCC1=O	-0.4
in CN(C)C=O	-0.45
in CN(C)P(=O)(N(C)C)N(C)C	-0.52
in CNC=O	-0.2
in CO	-0.51
in COC(C)=O	-0.75
in COCCOCCOCCOC	-0.25
in CS(C)=O	-0.05
in Cc1cccc(C)c1	-0.61
in ClC(Cl)(Cl)Cl	-0.78
in ClCCCl	-0.49
in Clc1ccccc1	-0.61
in N#Cc1ccccc1	-0.45
in Nc1ccccc1	-0.15
in O	1.28
in O=C1CCCC1	-0.6
in O=C1CCCCC1	-0.55
in OCCCOCCCO	0.06
in OCCO	0.5
in OCc1ccccc1	-0.23
in c1ccccc1	-0.66

CC(C)CC(C)(C)C
Conditions	solvation free energy, 298 K [kcal/mol]
in C1CCOC1	-4.65
in CC1CCS(=O)(=O)C1	-2.59
in CC#N	-3.11
in CC(C)(C)O	-3.6
in CC(C)O	-3.68
in CC(C)OC(C)C	-4.57
in CCC(C)=O	-4.05
in CCCCCCCC	-4.53
in CCCCCCCCCCCCCCCC	-4.26
in CCCCCCCCCCO	-3.9
in CCCCCCO	-4.07
in CCCCCO	-3.89
in CCCCCl	-4.57
in CCCO	-3.67
in CCO	-3.84
in CN1CCCC1=O	-3.12
in CN(C)C=O	-3.18
in COC(C)(C)C	-4.65
in N#CCCOCCC#N	-1.86
in O	2.92
in O=CN1CCOCC1	-2.44
in OCCO	-1.05
in OCCOCCO	-1.78
in OCCOCCOCCO	-1.88
in OCCS	-2.36

C=CCCC
Conditions	solvation free energy, 298 K [kcal/mol]
in C=CCCCCCCCCCCCCCC	-2.77
in CC#N	-2.5
in CC(=O)N(C)C	-2.35
in CCC#N	-2.86
in CCC(C)=O	-2.88
in CCCC#N	-2.56
in CCCCC(CC)COC(=O)CCCCC(=O)OCC(CC)CCCC	-2.66
in CCCCCCC	-3.15
in CCCCCCCC	-3.1
in CCCCCCCCO	-2.63
in CCCCO	-2.65
in CCCCOC(=O)c1ccccc1C(=O)OCCCC	-2.7
in CCN1CCCC1=O	-2.46
in CCN(CC)C(C)=O	-2.62
in CCNC(C)=O	-2.46
in CCNC=O	-2.26
in CCOC(=O)c1ccccc1C(=O)OCC	-2.33
in CCOC(C)=O	-2.96
in CN1CCCC1=O	-2.25
in CN1CCCCC1=O	-2.41
in CN(C)C=O	-2.32
in CNC(C)=O	-2.22
in CNC=O	-1.98
in COC(C)=O	-2.88
in Cc1ccc(C)cc1	-3.11
in ClCCCl	-2.86
in Clc1ccccc1	-3.01
in N#Cc1ccccc1	-2.61
in O	1.68
in O=C1CCCCC1	-2.77
in O=C1CCCO1	-1.95
in O=CN1CCOCC1	-1.84
in OCCOCCO	-1.23

CCCCI
Conditions	solvation free energy, 298 K [kcal/mol]
in ClC(Cl)(Cl)Cl	-5.57
in O	-0.25

Fc1ccccc1
Conditions	solvation free energy, 298 K [kcal/mol]
in C1CCOC1	-4.94
in C1COCCO1	-4.69
in CC(O)CO	-3.53
in CCCCCC	-4.15
in CCCCCCC	-4.13
in CCCCCCCCCC	-3.48
in CCCCCCCCCCCCCCCC	-3.81
in CN(C)C=O	-4.75
in COCCO	-4.4
in N#Cc1ccccc1	-4.53
in NC=O	-2.8
in O	-0.8
in OCCO	-2.91

Clc1ccc(Cl)c(-c2cc(Cl)ccc2Cl)c1
Conditions	solvation free energy, 298 K [kcal/mol]
in CCCCCCCCO	-11.2
in O	-2.55

ON=C1CCCCC1
Conditions	solvation free energy, 298 K [kcal/mol]
in CCCCCC	-6.16
